Source: ChEMBL document CHEMBL2434851, “Squaric acid/4-aminoquinoline conjugates: novel potent antiplasmodial agents” (Eur J Med Chem, 2013)

Legend:
[1] = Inhibition of Plasmodium falciparum falcipain-2 using Z-Leu-Arg-AMC as substrate preincubated for 10 mins followed by substrate addition by spectrofluorometric analysis
in vitro = details: human
Description: Selectivity index, ratio of IC50 for HEK293T cells to IC50 for ring stage of Plasmodium falciparum W2 infected in human RBC

Plasmodium falciparum = experiment: microbe, parasite or virus in culture; details: W2, 48 h
Description: Antiplasmodial activity against ring stage of chloroquine-resistant Plasmodium falciparum W2 infected in human RBC after 48 hrs by flow cytometric analysis

HEK-293T = experiment: Cytotoxicity against HEK293T cells assessed as cell viability after 48 hrs by MTT assay; assay type: cell-based; details: Homo sapiens
Papain = target: T1, Papain (Carica papaya, UniProt P00784); experiment: Inhibition of papaya papain using Z-Leu-Leu-Arg-AMC as substrate after 30 mins by fluorescence microplate reader analysis
T1 sequence (P00784 whole entry): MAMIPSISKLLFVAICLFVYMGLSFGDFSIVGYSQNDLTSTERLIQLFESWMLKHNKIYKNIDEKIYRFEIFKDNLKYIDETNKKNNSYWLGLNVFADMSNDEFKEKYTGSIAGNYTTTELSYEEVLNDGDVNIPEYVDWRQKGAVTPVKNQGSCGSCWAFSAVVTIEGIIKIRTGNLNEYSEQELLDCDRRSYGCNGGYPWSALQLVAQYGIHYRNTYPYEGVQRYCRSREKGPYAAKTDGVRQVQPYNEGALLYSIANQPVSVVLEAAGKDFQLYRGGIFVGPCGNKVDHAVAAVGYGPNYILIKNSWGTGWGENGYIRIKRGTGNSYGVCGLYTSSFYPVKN

NIH3T3 = experiment: Cytotoxicity against mouse NIH/3T3 cells assessed as cell viability after 48 hrs by MTT assay; assay type: cell-based; details: NIH3T3, 48 h

Structure (SMILES) | IC50 [1] | selectivity ratio (in vitro) | IC50 (Plasmodium falciparum) | IC50 (HEK-293T) | IC50 (Papain) | IC50 (NIH3T3)
COc1c(NCCNc2ccnc3cc(Cl)ccc23)c(=O)c1=O | > 10 µM | > 32 | 1.56 µM | > 50 µM | > 10 µM | > 50 µM
COc1c(NCCCNc2ccnc3cc(Cl)ccc23)c(=O)c1=O |  | > 27 | 1.84 µM | > 50 µM | > 10 µM | > 50 µM
CCCCOc1c(NCCNc2ccnc3cc(Cl)ccc23)c(=O)c1=O | > 10 µM | > 24 | 2.04 µM | > 50 µM | > 10 µM | > 50 µM
CCCCOc1c(NCCCNc2ccnc3cc(Cl)ccc23)c(=O)c1=O | > 10 µM |  | > 10 µM |  | > 10 µM | 
CCCCOc1c(N2CCN(c3ccnc4cc(Cl)ccc34)CC2)c(=O)c1=O |  | > 6 | 7.82 µM | > 50 µM | > 10 µM | > 50 µM
CCCCOc1c(N2CCC(Nc3ccnc4cc(Cl)ccc34)CC2)c(=O)c1=O |  | 8 | 4.71 µM | 37.9 µM |  | 45.7 µM
O=c1c(NCCNc2ccnc3cc(Cl)ccc23)c(NCCNc2ccnc3cc(Cl)ccc23)c1=O |  | 25 | 0.2 µM | 5 µM | > 10 µM | 4.5 µM
O=c1c(NCCCNc2ccnc3cc(Cl)ccc23)c(NCCCNc2ccnc3cc(Cl)ccc23)c1=O |  | > 505 | 0.099 µM | > 50 µM | > 10 µM | > 50 µM
O=c1c(NCCCCNc2ccnc3cc(Cl)ccc23)c(NCCCCNc2ccnc3cc(Cl)ccc23)c1=O |  | > 526 | 0.095 µM | > 50 µM | > 10 µM | > 50 µM
O=c1c(N2CCC(Nc3ccnc4cc(Cl)ccc34)CC2)c(N2CCC(Nc3ccnc4cc(Cl)ccc34)CC2)c1=O |  | > 476 | 0.105 µM | > 50 µM |  | > 50 µM
O=C(NCCNc1ccnc2cc(Cl)ccc12)[C@H](Cc1ccccc1)Nc1c(N[C@@H](Cc2ccccc2)C(=O)NCCNc2ccnc3cc(Cl)ccc23)c(=O)c1=O | > 50 µM | > 70 | 0.71 µM | > 50 µM | > 10 µM | > 50 µM
CCCCOc1c(NCCCC(C)Nc2cc(OC)cc3cccnc23)c(=O)c1=O (stereo not drawn) |  | > 2 | 18.6 µM | > 50 µM | > 10 µM | > 50 µM
COc1cc(NC(C)CCCNc2c(NCCCC(C)Nc3cc(OC)cc4cccnc34)c(=O)c2=O)c2ncccc2c1 (stereo not drawn) |  | > 22 | 2.21 µM | > 50 µM |  | > 50 µM
CCN(CC)CCCC(C)Nc1ccnc2cc(Cl)ccc12 (stereo not drawn) [CHLOROQUINE] |  |  |  | > 50 µM |  | > 50 µM
CC(C)C[C@H](NC(=O)[C@H]1O[C@@H]1C(=O)O)C(=O)NCCCCN=C(N)N [E-64] | 0.06 µM |  |  |  | 0.007 µM | 
CCCCOc1c(OCCCC)c(=O)c1=O [SQUARIC ACID DIBUTYL ESTER] |  |  | 8.84 µM |  |  | 
